Data on 13 molecules can be found in patent US4777182A, “6-Amidino-2-naphthyl 4-guanidinobenzoate derivatives and pharmaceutical composition containing them” (Torii & Co., Ltd., priority 1984, dated 1988).

The target in one test is T1, Trypsin (Bos taurus, UniProt P00760).
T1 sequence (P00760 24-246): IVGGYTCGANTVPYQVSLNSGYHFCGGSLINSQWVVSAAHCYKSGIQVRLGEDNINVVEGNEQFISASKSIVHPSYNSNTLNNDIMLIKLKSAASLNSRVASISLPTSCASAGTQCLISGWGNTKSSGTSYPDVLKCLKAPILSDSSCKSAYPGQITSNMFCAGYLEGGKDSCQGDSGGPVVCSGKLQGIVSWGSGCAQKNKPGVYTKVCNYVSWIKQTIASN
In words: Anti-trypsin activity (inhibition of TAME hydrolysis). The test is classed as biochemical. The following applies: read-out: ID50, Trypsin.

Another test addresses Plasmin (Homo sapiens, UniProt P00747). The experiment in a line: Anti-plasmin activity (inhibition of TAME hydrolysis). The test is classed as biochemical. The following applies: TAME hydrolysis; read-out: ID50, Plasmin.
Another test has as its system Kallikrein. In words: Anti-kallikrein activity (inhibition of TAME hydrolysis). The test is classed as biochemical. The following applies: read-out: ID50, Kallikrein.
For the next test, the target named is Thrombin (Homo sapiens, UniProt P00734). In words: biochemical. The following applies: for IC50: TAME hydrolysis, read-out: ID50, Thrombin.
A further test deals with T2, C1r (Homo sapiens, UniProt P00736).
T2 sequence (P00736 18-463 limits assumed): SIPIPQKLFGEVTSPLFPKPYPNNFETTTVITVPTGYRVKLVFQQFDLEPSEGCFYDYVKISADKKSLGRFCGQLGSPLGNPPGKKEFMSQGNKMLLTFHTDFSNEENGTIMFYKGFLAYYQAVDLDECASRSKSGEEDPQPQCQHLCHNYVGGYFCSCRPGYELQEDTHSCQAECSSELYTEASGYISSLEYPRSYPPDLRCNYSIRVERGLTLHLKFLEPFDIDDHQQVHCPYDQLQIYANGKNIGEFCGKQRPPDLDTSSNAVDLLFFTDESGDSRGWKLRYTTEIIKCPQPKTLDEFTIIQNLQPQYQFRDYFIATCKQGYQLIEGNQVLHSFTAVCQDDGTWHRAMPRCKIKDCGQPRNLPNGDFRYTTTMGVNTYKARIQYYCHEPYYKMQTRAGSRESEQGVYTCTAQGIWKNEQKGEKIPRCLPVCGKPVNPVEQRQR
T2 sequence (P00736 464-705 limits assumed): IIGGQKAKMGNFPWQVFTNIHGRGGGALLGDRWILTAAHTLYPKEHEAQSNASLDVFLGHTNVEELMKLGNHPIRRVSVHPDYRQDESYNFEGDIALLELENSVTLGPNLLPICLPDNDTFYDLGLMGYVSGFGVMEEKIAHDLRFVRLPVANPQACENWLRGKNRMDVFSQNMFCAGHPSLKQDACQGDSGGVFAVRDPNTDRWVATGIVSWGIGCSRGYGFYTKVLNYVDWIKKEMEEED
In words: Anti-C1r activity (inhibition of AAME hydrolysis). The test is classed as biochemical. The following applies: for inhibition at 10 µM: at 1×10^-5 M, read-out: percent inhibition, C1r (figure in parentheses); for IC50: AAME hydrolysis, read-out: ID50, C1r. Here is the method: The anti-C1 esterase (C1r, C1s) activity was determined according to the method of Okamura et al. [K. Okamura, M. Muramatsu and B. Fujii, Biochem. Biophys. Acta, 295, 252-257 (1973)]. (2) The inhibition of complement mediated hemolysis was determined according to the method of Baker et al. [B. R. Baker and E. H. Erickson, J. Med. Chem., 12, 408-414 (1969)]. The figures in Table 2 have the following meanings: C1r: […]

The target of the next test is T3, C1s (Homo sapiens, UniProt P09871).
T3 sequence (P09871 16-437 limits assumed): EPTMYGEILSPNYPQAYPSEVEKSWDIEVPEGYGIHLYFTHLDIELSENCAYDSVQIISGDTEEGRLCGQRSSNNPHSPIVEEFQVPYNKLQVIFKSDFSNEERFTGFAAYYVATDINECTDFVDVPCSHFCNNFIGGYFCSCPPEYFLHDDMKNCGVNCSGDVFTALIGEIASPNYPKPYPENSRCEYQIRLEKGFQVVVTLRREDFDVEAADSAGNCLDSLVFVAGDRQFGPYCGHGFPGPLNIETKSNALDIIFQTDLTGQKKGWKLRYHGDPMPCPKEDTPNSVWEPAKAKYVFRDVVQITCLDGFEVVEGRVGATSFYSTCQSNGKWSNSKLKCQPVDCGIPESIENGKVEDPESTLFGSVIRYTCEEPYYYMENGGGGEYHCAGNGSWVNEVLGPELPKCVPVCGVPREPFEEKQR
T3 sequence (P09871 438-688 limits assumed): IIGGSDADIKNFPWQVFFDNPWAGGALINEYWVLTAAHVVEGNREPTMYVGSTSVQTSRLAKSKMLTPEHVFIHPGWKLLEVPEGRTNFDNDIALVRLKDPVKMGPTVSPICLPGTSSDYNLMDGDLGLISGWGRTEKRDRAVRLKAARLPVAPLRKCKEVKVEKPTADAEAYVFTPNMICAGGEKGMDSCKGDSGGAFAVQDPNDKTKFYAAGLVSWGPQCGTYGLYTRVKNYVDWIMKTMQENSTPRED
The experiment in a line: Anti-C1s activity (inhibition of ATEE hydrolysis). The test is classed as biochemical. The following applies: read-out: ID50, C1s. Here is the method:
The anti-C1 esterase (C1r, C1s) activity was determined according to the method of Okamura et al. [K. Okamura, M. Muramatsu and B. Fujii, Biochem. Biophys. Acta, 295, 252-257 (1973)]. (2) The inhibition of complement mediated hemolysis was determined according to the method of Baker et al. [B. R. Baker and E. H. Erickson, J. Med. Chem., 12, 408-414 (1969)]. The figures in Table 2 have the following meanings:
C1s: Molar concentration of the test compound which inhibits 50% of the ability of C1s to hydrolyse ATEE (acetyltyrosin ethyl ester) (ID50).

Test [1] deals with complement mediated hemolysis. In words: Inhibition of complement mediated hemolysis. Type of test: cell-based.
Text: Therefore, when a known amount of complement admixed with a C1 esterase inhibitor is used, the hemolysis must be suppressed in proportion to the inhibitory activity.

The inhibition is how much of the control response was suppressed.

Sequence of Plasmin (P00747 97-580 limits assumed, species assumed): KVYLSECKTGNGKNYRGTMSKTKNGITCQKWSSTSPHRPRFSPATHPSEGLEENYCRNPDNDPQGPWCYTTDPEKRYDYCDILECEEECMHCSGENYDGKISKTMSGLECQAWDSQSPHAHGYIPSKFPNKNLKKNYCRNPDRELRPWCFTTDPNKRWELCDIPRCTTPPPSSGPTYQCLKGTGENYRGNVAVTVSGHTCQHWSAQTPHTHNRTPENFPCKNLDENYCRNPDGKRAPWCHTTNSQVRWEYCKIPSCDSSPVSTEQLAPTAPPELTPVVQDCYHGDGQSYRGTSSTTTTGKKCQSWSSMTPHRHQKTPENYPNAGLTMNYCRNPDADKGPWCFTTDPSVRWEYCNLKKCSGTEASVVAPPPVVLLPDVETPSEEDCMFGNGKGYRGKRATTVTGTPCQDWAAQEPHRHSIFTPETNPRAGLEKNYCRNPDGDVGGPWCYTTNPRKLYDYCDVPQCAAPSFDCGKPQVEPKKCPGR
Sequence of Plasmin (P00747 581-810 limits assumed, species assumed): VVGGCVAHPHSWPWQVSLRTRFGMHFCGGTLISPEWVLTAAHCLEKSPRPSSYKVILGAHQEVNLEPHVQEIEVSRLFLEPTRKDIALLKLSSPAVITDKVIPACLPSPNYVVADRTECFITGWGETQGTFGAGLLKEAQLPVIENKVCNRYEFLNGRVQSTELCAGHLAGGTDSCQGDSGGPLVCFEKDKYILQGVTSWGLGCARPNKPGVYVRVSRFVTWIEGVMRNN

As to `CC(=O)NCCNC(=N)Nc1ccc(C(=O)Oc2ccc3cc(C(=N)N)ccc3c2)cc1` [compound 16], the IC50 on Trypsin is 4 µM; on Plasmin, 0.9 µM; with Kallikrein, 3 µM; on C1s it was 3 µM. Besides, the inhibition at 10 µM was 49% at Thrombin (at 1×10^-5 M, read-out: percentage inhibition, Thrombin (figure in parentheses)) and 35% at C1r. The “Inhibition of complement mediated hemolysis (%)” value (from here on “Inhibition … (%)”) in test [1] (1 × 10^-5) amounted to 100%; in test [1] (1 × 10^-6), 89%; in test [1] (1 × 10^-7), 25%.
As to `CN1CCNC1=Nc1ccc(C(=O)Oc2ccc3cc(C(=N)N)ccc3c2)cc1` [compound 3], the IC50 on Trypsin stood at 0.3 µM; on Plasmin, 1 µM; with Kallikrein it was 0.6 µM; at Thrombin it was 0.8 µM; at C1s, 0.3 µM. In addition, the inhibition at 10 µM at C1r worked out at 38%. Further, the figures for the “Inhibition … (%)” value in test [1] (1 × 10^-5), in test [1] (1 × 10^-6) and in test [1] (1 × 10^-7) were 93%, 25% and 0%, respectively.
In the case of `CCNC(=N)Nc1ccc(C(=O)Oc2ccc3cc(C(=N)N)ccc3c2)cc1` [compound 10], the IC50 on Trypsin was 2 µM; at Plasmin it was 5 µM; with Kallikrein, 0.4 µM; at Thrombin it was 6 µM; on C1s, 0.8 µM. In addition, the inhibition at 10 µM at C1r stood at 48%. Besides, the figures for the “Inhibition … (%)” value in test [1] (1 × 10^-5), in test [1] (1 × 10^-6) and in test [1] (1 × 10^-7) were 100%, 86% and 20%, respectively.
For `CCN=C(NCC)Nc1ccc(C(=O)Oc2ccc3cc(C(=N)N)ccc3c2)cc1` [compound 12], the inhibition at 10 µM on C1r turned out to be 24%. The IC50 at C1s stood at 0.08 µM. Also, the “Inhibition … (%)” value was 100% in test [1] (1 × 10^-5), 59% in test [1] (1 × 10^-6) and 0% in test [1] (1 × 10^-7).
Consider `N=C(N)c1ccc2cc(OC(=O)c3ccc(NC4=NCCCN4)cc3)ccc2c1` [compound 5], for which the IC50 at Trypsin was found to be 6 µM; on Plasmin, 1 µM; with Kallikrein it was 0.5 µM; at Thrombin, 2 µM; on C1s it was 0.3 µM. The inhibition at 10 µM on C1r was 41%. The “Inhibition … (%)” value in test [1] (1 × 10^-5) is reported as 98%; in test [1] (1 × 10^-6), 83%; in test [1] (1 × 10^-7) it was 5%.
`CCNC(=NC)Nc1ccc(C(=O)Oc2ccc3cc(C(=N)N)ccc3c2)cc1` [compound 11]: the inhibition at 10 µM on C1r amounted to 24%. Also, on C1s, the IC50 amounted to 0.2 µM. Moreover, the “Inhibition … (%)” value in test [1] (1 × 10^-5) is listed as 100%; in test [1] (1 × 10^-6), 57%; in test [1] (1 × 10^-7) it was 0%.
With `N=C(NCCOCc1ccccc1)Nc1ccc(C(=O)Oc2ccc3cc(C(=N)N)ccc3c2)cc1` [compound 18], the IC50 was 2 µM at Trypsin; 0.6 µM at Plasmin; 2 µM with Kallikrein; 5 µM on Thrombin; 2 µM on C1s. In addition, the inhibition at 10 µM on C1r was 37%. Moreover, the “Inhibition … (%)” value came out at 100% in test [1] (1 × 10^-5), 100% in test [1] (1 × 10^-6) and 46% in test [1] (1 × 10^-7).
In the case of `N=C(NCCO)Nc1ccc(C(=O)Oc2ccc3cc(C(=N)N)ccc3c2)cc1` [compound 15], the IC50 was 2 µM at Trypsin; 2 µM at Plasmin; 1 µM in the test on Kallikrein; 1 µM at Thrombin; 5 µM on C1r; 0.9 µM on C1s. Further, the “Inhibition … (%)” value was 96% in test [1] (1 × 10^-5), 52% in test [1] (1 × 10^-6) and 6% in test [1] (1 × 10^-7).
Regarding `N=C(N)c1ccc2cc(OC(=O)c3ccc(NC4=NC5CCCCC5N4)cc3)ccc2c1` (stereo not shown) [compound 6], the IC50 on Trypsin came to 2 µM; at Plasmin it was 3 µM; in the test on Kallikrein it was 0.9 µM; on Thrombin, 2 µM; at C1r, 9 µM; on C1s, 0.4 µM. Besides, the “Inhibition … (%)” value is 100% in test [1] (1 × 10^-5), 100% in test [1] (1 × 10^-6) and 75% in test [1] (1 × 10^-7).
Regarding `CN(C)C(=N)Nc1ccc(C(=O)Oc2ccc3cc(C(=N)N)ccc3c2)cc1` [compound 9], the IC50 at Trypsin was 6 µM; on Plasmin it was 2 µM; in the test with Kallikrein, 0.9 µM; on Thrombin it was 0.6 µM; on C1s, 0.4 µM. For the same molecule, the inhibition at 10 µM on C1r was determined as 41%. For the same molecule, the “Inhibition … (%)” value in test [1] (1 × 10^-5) amounted to 100%; in test [1] (1 × 10^-6), 68%; in test [1] (1 × 10^-7) it was 8%.
`N=C(N)c1ccc2cc(OC(=O)c3ccc(Nc4ncc[nH]4)cc3)ccc2c1` [compound 7]: the IC50 at Trypsin was 0.6 µM; on Plasmin, 5 µM; with Kallikrein, 4 µM; at Thrombin, 6 µM; on C1r, 3 µM; at C1s it was 0.3 µM. Also, the entries for the “Inhibition … (%)” value in test [1] (1 × 10^-5), in test [1] (1 × 10^-6) and in test [1] (1 × 10^-7) were 96%, 46% and 4%, respectively.
For `CC1CNC(Nc2ccc(C(=O)Oc3ccc4cc(C(=N)N)ccc4c3)cc2)=N1` (stereo not shown) [compound 4], the IC50 on Trypsin stood at 3 µM; on Plasmin, 1 µM; in the test with Kallikrein, 0.4 µM; at Thrombin it was 2 µM; at C1r, 10 µM; on C1s it was 0.4 µM. Also, the “Inhibition … (%)” value in test [1] (1 × 10^-5) was determined as 100%; in test [1] (1 × 10^-6), 96%; in test [1] (1 × 10^-7) it was 48%.
As to `CCCCNC(=N)Nc1ccc(C(=O)Oc2ccc3cc(C(=N)N)ccc3c2)cc1` [compound 13], the IC50 at Trypsin stood at 2 µM; on Plasmin, 0.5 µM; with Kallikrein, 0.9 µM; at Thrombin, 1 µM; on C1s, 0.5 µM. Moreover, the inhibition at 10 µM at C1r amounted to 46%. The “Inhibition … (%)” value was determined as 100% in test [1] (1 × 10^-5), 78% in test [1] (1 × 10^-6) and 3% in test [1] (1 × 10^-7).
